# Data reported in article PMC10866072, “Design, synthesis, molecular modelling and biological evaluation of novel 6-amino-5-cyano-2-thiopyrimidine derivatives as potent anticancer agents against leukemia and apoptotic inducers” (Journal of Enzyme Inhibition and Medicinal Chemistry, 2024).
# What was measured:
# OVCAR-5 = assay type: cell-based; settings: Homo sapiens, one dose 10^-5 M, 48 h
# CCRF-CEM = assay type: cell-based; settings: Homo sapiens, one dose 10^-5 M, 48 h
# SNB-75 = assay type: cell-based; settings: Homo sapiens, one dose 10^-5 M, 48 h
# IGROV1 = assay type: cell-based; settings: Homo sapiens, IGROV-1, one dose 10^-5 M, 48 h, read-out: % growth
# CAKI-1 = assay type: cell-based; settings: Homo sapiens, CAKI-1, 48 h, one dose 10^-5 M, 48 h
# SK-MEL-28 = assay type: cell-based; settings: Homo sapiens, one dose 10^-5 M, 48 h
# SK-MEL-5 = assay type: cell-based; settings: Homo sapiens, one dose 10^-5 M, 48 h, read-out: % growth
# SN12C = assay type: cell-based, human; settings: Homo sapiens, one dose 10^-5 M, 48 h
# NCI-H23 = assay type: cell-based; settings: Homo sapiens, one dose 10^-5 M, 48 h, read-out: % growth
# HOP-92 = assay type: cell-based; settings: Homo sapiens, one dose 10^-5 M, 48 h
# RPMI-8226 = assay type: cell-based; settings: Homo sapiens, one dose 10^-5 M, 48 h
# HS 578T = assay type: cell-based; settings: Homo sapiens; one dose 10^-5 M, 48 h; HS 578T; read-out: % growth
# OVCAR-4 = assay type: cell-based; settings: Homo sapiens, one dose 10^-5 M, 48 h
# PC-3 = assay type: cell-based; settings: Homo sapiens, one dose 10^-5 M, 48 h
# HCT-116 = assay type: cell-based; settings: Homo sapiens, one dose 10^-5 M, 48 h, read-out: % growth
# A549/ATCC = assay type: cell-based; settings: Homo sapiens, one dose 10^-5 M, 48 h
# NCI-H460 = assay type: cell-based; settings: Homo sapiens, one dose 10^-5 M, 48 h, read-out: % growth
# BT-549 = assay type: cell-based; settings: Homo sapiens, one dose 10^-5 M, 48 h
# SF-295 = assay type: cell-based; settings: Homo sapiens, one dose 10^-5 M, 48 h
# SR = assay type: cell-based; settings: Homo sapiens, one dose 10^-5 M, 48 h
# UO-31 = assay type: cell-based; settings: Homo sapiens, UO-31, 48 h, one dose 10^-5 M, 48 h
# MDA-MB-231/ATCC = assay type: cell-based; settings: Homo sapiens, one dose 10^-5 M, 48 h
# NCI-H522 = assay type: cell-based; settings: Homo sapiens, one dose 10^-5 M, 48 h
# SW-620 = assay type: cell-based; settings: Homo sapiens, one dose 10^-5 M, 48 h
# ACHN = assay type: cell-based; settings: Homo sapiens, one dose 10^-5 M, 48 h
# K-562 = assay type: cell-based; settings: Homo sapiens, K562, one dose 10^-5 M, 48 h
# MCF7 = assay type: cell-based; settings: Homo sapiens, one dose 10^-5 M, 48 h, read-out: % growth
# NCI-H226 = assay type: cell-based; settings: Homo sapiens, one dose 10^-5 M, 48 h
# EKVX = assay type: cell-based; settings: Homo sapiens, one dose 10^-5 M, 48 h
# KM12 = assay type: cell-based; settings: Homo sapiens, one dose 10^-5 M, 48 h
# NCI/ADR-RES = assay type: cell-based; settings: Homo sapiens, one dose 10^-5 M, 48 h
# UACC-257 = assay type: cell-based; settings: Homo sapiens, one dose 10^-5 M, 48 h
# T-47D = assay type: cell-based; settings: Homo sapiens, T47D, one dose 10^-5 M, 48 h, read-out: % growth
# 786-0 = assay type: cell-based; settings: Homo sapiens, one dose 10^-5 M, 48 h
# [1] = system: full NCI 60 cell lines panel; settings: for activity at 10 µM: Homo sapiens, 60 cell, 48 h, read-out: Mean % growth; for activity on all 60 cancer cell lines tested (in words): one dose
# Experimental: 60 different human tumour cell lines-representing leukaemia, melanoma, and malignancies of the lung, colon, brain, ovary, breast, prostate, and kidney are used in the operation of this screen.
# Compounds were dissolved in DMSO: glycerol (91) and were kept in a freezer at −70° C. The synthesised compounds were introduced to the culture at a single concentration of 1 0 ^−5 M and left to incubate for 48 h. A protein-binding dye called sulforhodamine B was used to measure end points (SRB).
# A mean graph showing the % growth of treated cells is used to represent the one-dose data. The value provided for the One-dose assay represents growth in comparison to the no-drug control and to the number of cells at time zero. This enables the identification of lethality (values between 0 and 100) as well as growth inhibition (values less than 0). A value of 100, for instance, indicates no growth inhibition. A value of 40 would indicate 60% growth inhibition. A value of 0 indicates no net growth over the course of the experiment. A value of −40 would indicate 40% lethality.
# Furthermore, the average sensitivity of all cell lines to the compound is termed as the full panel mean graph midpoints (MG-MID). The complete panel mean graph midpoints refers to the average sensitivity of all cell lines to the chemical (MG-MID). A measure of a compound’s selectivity for a given cell line is the ratio created by dividing the full panel mean graph midpoints (MG-MID) concentration by the individual subpanel MG-MID concentrations (obtained as the average sensitivity of all the cell lines in a given subpanel to the test compound).
# OVCAR-3 = assay type: cell-based; settings: Homo sapiens, one dose 10^-5 M, 48 h
# M14 = assay type: cell-based; settings: Homo sapiens, one dose 10^-5 M, 48 h
# SK-MEL-2 = assay type: cell-based; settings: Homo sapiens, one dose 10^-5 M, 48 h
# MDA-MB-468 = assay type: cell-based; settings: Homo sapiens, one dose 10^-5 M, 48 h
# SF-268 = assay type: cell-based; settings: Homo sapiens, one dose 10^-5 M, 48 h, read-out: % growth
# MOLT-4 = assay type: cell-based; settings: Homo sapiens, one dose 10^-5 M, 48 h, read-out: % growth
# HCC-2998 = assay type: cell-based; settings: Homo sapiens, one dose 10^-5 M, 48 h
# HCT-15 = assay type: cell-based; settings: Homo sapiens, one dose 10^-5 M, 48 h, read-out: % growth
# HOP-62 = assay type: cell-based; settings: Homo sapiens, one dose 10^-5 M, 48 h
# OVCAR-8 = assay type: cell-based; settings: Homo sapiens, one dose 10^-5 M, 48 h
# UACC-62 = assay type: cell-based; settings: Homo sapiens, one dose 10^-5 M, 48 h
# MDA-MB-435 = assay type: cell-based; settings: Homo sapiens, one dose 10^-5 M, 48 h, read-out: % growth
# MALME-3M = assay type: cell-based; settings: Homo sapiens, one dose 10^-5 M, 48 h
# TK-10 = assay type: cell-based; settings: Homo sapiens, one dose 10^-5 M, 48 h
# SNB-19 = assay type: cell-based; settings: Homo sapiens, one dose 10^-5 M, 48 h, read-out: % growth
# HL-60(TB) = assay type: cell-based; settings: Homo sapiens, one dose 10^-5 M, 48 h
# SF-539 = assay type: cell-based; settings: Homo sapiens, one dose 10^-5 M, 48 h
# LOX IMVI = assay type: cell-based; settings: Homo sapiens, one dose 10^-5 M, 48 h, read-out: % growth
# U251 = assay type: cell-based; settings: Homo sapiens, U-251, one dose 10^-5 M, 48 h
# DU-145 = assay type: cell-based; settings: Homo sapiens, one dose 10^-5 M, 48 h
# HT29 = assay type: cell-based; settings: Homo sapiens, HT-29, one dose 10^-5 M, 48 h
# SK-OV-3 = assay type: cell-based; settings: Homo sapiens, one dose 10^-5 M, 48 h
# A498 = assay type: cell-based; settings: Homo sapiens, one dose 10^-5 M, 48 h
# COLO 205 = assay type: cell-based; settings: Homo sapiens, one dose 10^-5 M, 48 h
structure (smiles),measurement,setting,value
"CN(C)c1ccc(-c2nc(S)nc(N)c2C(=N)NN=Cc2ccc(Cl)cc2)cc1 [Compound 4b, 4-amino-N'-[(4-chlorophenyl)methylene]-6-[4-(dimethylamino)phenyl]-2-mercapto pyrimidine-5-carboximidohydrazide]",percent cell growth at 10 µM,OVCAR-5,109%
same,% cell growth at 10 µM,CCRF-CEM,76.3%
same,% growth at 10 µM,SNB-75,95.2%
same,activity at 10 µM,IGROV1,102%
same,% growth at 10 µM,CAKI-1,102%
same,% cell growth at 10 µM,SK-MEL-28,103%
same,activity at 10 µM,SK-MEL-5,97.6%
same,% growth at 10 µM,SN12C,88.5%
same,activity at 10 µM,NCI-H23,101%
same,% growth at 10 µM,HOP-92,118%
same,% growth at 10 µM,RPMI-8226,79.1%
same,activity at 10 µM,HS 578T,97.5%
same,% growth at 10 µM,OVCAR-4,95.5%
same,percent cell growth at 10 µM,PC-3,91.5%
same,activity at 10 µM,HCT-116,100%
same,% growth at 10 µM,A549/ATCC,98.4%
same,activity at 10 µM,NCI-H460,99.8%
same,% cell growth at 10 µM,BT-549,95.7%
same,% cell growth at 10 µM,SF-295,96.8%
same,percent cell growth at 10 µM,SR,98.7%
same,% cell growth at 10 µM,UO-31,65.4%
same,% growth at 10 µM,MDA-MB-231/ATCC,102%
same,% growth at 10 µM,NCI-H522,92.4%
same,% growth at 10 µM,SW-620,102%
same,% growth at 10 µM,ACHN,102%
same,% growth at 10 µM,K-562,98.5%
same,activity at 10 µM,MCF7,90.9%
same,% growth at 10 µM,NCI-H226,99.8%
same,% cell growth at 10 µM,EKVX,91.8%
same,% growth at 10 µM,KM12,92.9%
same,cell growth percent at 10 µM,NCI/ADR-RES,104%
same,percent cell growth at 10 µM,UACC-257,99.7%
same,activity at 10 µM,T-47D,88.3%
same,% growth at 10 µM,786-0,86.7%
same,activity at 10 µM,[1],98.2%
same,activity on all 60 cancer cell lines tested (in words),[1],weak activity
same,% growth at 10 µM,OVCAR-3,102%
same,% growth at 10 µM,M14,96.9%
same,% growth at 10 µM,SK-MEL-2,107%
same,percent cell growth at 10 µM,MDA-MB-468,107%
same,activity at 10 µM,SF-268,97.5%
same,activity at 10 µM,MOLT-4,101%
same,% growth at 10 µM,HCC-2998,94.3%
same,activity at 10 µM,HCT-15,92.3%
same,% growth at 10 µM,HOP-62,109%
same,% growth of cells at 10 µM,OVCAR-8,106%
same,% growth at 10 µM,UACC-62,94%
same,activity at 10 µM,MDA-MB-435,96.2%
same,% growth at 10 µM,MALME-3M,98.7%
same,% cell growth at 10 µM,TK-10,90%
same,activity at 10 µM,SNB-19,98.8%
same,% growth at 10 µM,HL-60(TB),91.8%
same,% growth at 10 µM,SF-539,98%
same,activity at 10 µM,LOX IMVI,103%
same,% growth at 10 µM,U251,106%
same,% growth at 10 µM,DU-145,100%
same,% growth at 10 µM,HT29,92.7%
same,% growth at 10 µM,SK-OV-3,120%
same,% growth at 10 µM,A498,92.1%
same,% growth at 10 µM,COLO 205,137%
CN(C)c1ccc(-c2nc(S)nc(N)c2C#N)cc1 [Compound 1a],percent cell growth at 10 µM,OVCAR-5,108%
same,% cell growth at 10 µM,CCRF-CEM,90.9%
same,% growth at 10 µM,SNB-75,107%
same,activity at 10 µM,IGROV1,100%
same,% growth at 10 µM,CAKI-1,92.4%
same,% cell growth at 10 µM,SK-MEL-28,103%
same,activity at 10 µM,SK-MEL-5,88.7%
same,% growth at 10 µM,SN12C,90.7%
same,activity at 10 µM,NCI-H23,95%
same,% growth at 10 µM,HOP-92,94%
same,% growth at 10 µM,RPMI-8226,80.5%
same,activity at 10 µM,HS 578T,100%
same,% growth at 10 µM,OVCAR-4,101%
same,percent cell growth at 10 µM,PC-3,87.8%
same,activity at 10 µM,HCT-116,91.9%
same,% growth at 10 µM,A549/ATCC,96.5%
same,activity at 10 µM,NCI-H460,113%
same,% cell growth at 10 µM,BT-549,85.4%
same,% cell growth at 10 µM,SF-295,103%
same,percent cell growth at 10 µM,SR,83%
same,% cell growth at 10 µM,UO-31,83.8%
same,% growth at 10 µM,MDA-MB-231/ATCC,96%
same,% growth at 10 µM,NCI-H522,79.7%
same,% growth at 10 µM,SW-620,113%
same,% growth at 10 µM,ACHN,98%
same,% growth at 10 µM,K-562,89.8%
same,activity at 10 µM,MCF7,80.4%
same,% growth at 10 µM,NCI-H226,96%
same,% cell growth at 10 µM,EKVX,87.9%
same,% growth at 10 µM,KM12,92.3%
same,cell growth percent at 10 µM,NCI/ADR-RES,91.2%
same,percent cell growth at 10 µM,UACC-257,102%
same,activity at 10 µM,T-47D,75.6%
same,% growth at 10 µM,786-0,87.9%
same,activity at 10 µM,[1],96.6%
same,activity on all 60 cancer cell lines tested (in words),[1],weak activity
same,% growth at 10 µM,OVCAR-3,94.4%
same,% growth at 10 µM,M14,102%
same,% growth at 10 µM,SK-MEL-2,107%
same,percent cell growth at 10 µM,MDA-MB-468,60.2%
same,activity at 10 µM,SF-268,104%
same,activity at 10 µM,MOLT-4,92.6%
same,% growth at 10 µM,HCC-2998,105%
same,activity at 10 µM,HCT-15,86.4%
same,% growth at 10 µM,HOP-62,117%
same,% growth of cells at 10 µM,OVCAR-8,103%
same,% growth at 10 µM,UACC-62,77.2%
same,activity at 10 µM,MDA-MB-435,103%
same,% growth at 10 µM,MALME-3M,106%
same,% cell growth at 10 µM,TK-10,111%
same,activity at 10 µM,SNB-19,89.9%
same,% growth at 10 µM,HL-60(TB),94%
same,% growth at 10 µM,SF-539,98.4%
same,activity at 10 µM,LOX IMVI,85.6%
same,% growth at 10 µM,U251,90.6%
same,% growth at 10 µM,DU-145,102%
same,% growth at 10 µM,HT29,109%
same,% growth at 10 µM,SK-OV-3,121%
same,% growth at 10 µM,A498,131%
same,% growth at 10 µM,COLO 205,123%
